Reference: PubChem BioAssay (NCI)
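Briefly, cells in 96-well plates were exposed to five compound concentrations for 48 h, and endpoints were estimated by linear interpolation. TGI is the concentration that stops growth completely.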

Assays:
Experiment in all cases: NCI tumour cell line growth inhibition, 48 h
786-0 renal = tested on: 786-0 renal
A498 renal = tested on: A498 renal
A549 NSCLC = tested on: A549 NSCLC
ACHN renal = tested on: ACHN renal
CAKI-1 renal = tested on: CAKI-1 renal
CCRF-CEM leukemia = tested on: CCRF-CEM leukemia
COLO 205 colon = tested on: COLO 205 colon
DLD-1 colon = tested on: DLD-1 colon
DMS 114 small cell lung = tested on: DMS 114 small cell lung
DMS 273 small cell lung = tested on: DMS 273 small cell lung
EKVX NSCLC = tested on: EKVX NSCLC
HCC-2998 colon = tested on: HCC-2998 colon
HCT-116 colon = tested on: HCT-116 colon
HCT-15 colon = tested on: HCT-15 colon
HOP-62 NSCLC = tested on: HOP-62 NSCLC
HOP-92 NSCLC = tested on: HOP-92 NSCLC
HT29 colon = tested on: HT29 colon
IGROV1 ovarian = tested on: IGROV1 ovarian
K-562 leukemia = tested on: K-562 leukemia
KM12 colon = tested on: KM12 colon
KM20L2 colon = tested on: KM20L2 colon
LOX IMVI melanoma = tested on: LOX IMVI melanoma
LXFL 529 NSCLC = tested on: LXFL 529 NSCLC
M14 melanoma = tested on: M14 melanoma
M19-MEL melanoma = tested on: M19-MEL melanoma
MALME-3M melanoma = tested on: MALME-3M melanoma
MOLT-4 leukemia = tested on: MOLT-4 leukemia
NCI-H226 lung = tested on: NCI-H226 lung
NCI-H23 lung = tested on: NCI-H23 lung
NCI-H460 lung = tested on: NCI-H460 lung
NCI-H522 lung = tested on: NCI-H522 lung
OVCAR-3 ovarian = tested on: OVCAR-3 ovarian
OVCAR-4 ovarian = tested on: OVCAR-4 ovarian
OVCAR-5 ovarian = tested on: OVCAR-5 ovarian
OVCAR-8 ovarian = tested on: OVCAR-8 ovarian
RPMI-8226 leukemia = tested on: RPMI-8226 leukemia
RXF 393 renal = tested on: RXF 393 renal
RXF-631 renal = tested on: RXF-631 renal
SF-268 CNS = tested on: SF-268 CNS
SF-295 CNS = tested on: SF-295 CNS
SF-539 CNS = tested on: SF-539 CNS
SK-MEL-2 melanoma = tested on: SK-MEL-2 melanoma
SK-MEL-28 melanoma = tested on: SK-MEL-28 melanoma
SK-MEL-5 melanoma = tested on: SK-MEL-5 melanoma
SK-OV-3 ovarian = tested on: SK-OV-3 ovarian
SN12C renal = tested on: SN12C renal
SNB-19 CNS = tested on: SNB-19 CNS
SNB-75 CNS = tested on: SNB-75 CNS
SNB-78 CNS = tested on: SNB-78 CNS
SW-620 colon = tested on: SW-620 colon
TK-10 renal = tested on: TK-10 renal
U251 CNS = tested on: U251 CNS
UACC-257 melanoma = tested on: UACC-257 melanoma
UACC-62 melanoma = tested on: UACC-62 melanoma
UO-31 renal = tested on: UO-31 renal
XF 498 CNS = tested on: XF 498 CNS
HL-60(TB) leukemia = tested on: HL-60(TB) leukemia
HOP-18 NSCLC = tested on: HOP-18 NSCLC
SR leukemia = tested on: SR leukemia

O=c1[nH]nc2c3n[nH]c(=O)n3c3ccccc3n12
TGI (786-0 renal): > 100 µM | TGI (A498 renal): > 100 µM | TGI (A549 NSCLC): > 100 µM | TGI (ACHN renal): > 100 µM | TGI (CAKI-1 renal): > 100 µM | TGI (CCRF-CEM leukemia): > 100 µM | TGI (COLO 205 colon): > 100 µM | TGI (DLD-1 colon): > 100 µM | TGI (DMS 114 small cell lung): > 100 µM | TGI (DMS 273 small cell lung): > 100 µM | TGI (EKVX NSCLC): > 100 µM | TGI (HCC-2998 colon): > 100 µM | TGI (HCT-116 colon): > 100 µM | TGI (HCT-15 colon): > 100 µM | TGI (HOP-62 NSCLC): > 100 µM | TGI (HOP-92 NSCLC): > 100 µM | TGI (HT29 colon): > 100 µM | TGI (IGROV1 ovarian): > 100 µM | TGI (K-562 leukemia): > 100 µM | TGI (KM12 colon): > 100 µM | TGI (KM20L2 colon): > 100 µM | TGI (LOX IMVI melanoma): > 100 µM | TGI (LXFL 529 NSCLC): > 100 µM | TGI (M14 melanoma): > 100 µM | TGI (M19-MEL melanoma): > 100 µM | TGI (MALME-3M melanoma): > 100 µM | TGI (MOLT-4 leukemia): > 100 µM | TGI (NCI-H226 lung): > 100 µM | TGI (NCI-H23 lung): > 100 µM | TGI (NCI-H460 lung): > 100 µM | TGI (NCI-H522 lung): > 100 µM | TGI (OVCAR-3 ovarian): > 100 µM | TGI (OVCAR-4 ovarian): > 100 µM | TGI (OVCAR-5 ovarian): > 100 µM | TGI (OVCAR-8 ovarian): > 100 µM | TGI (RPMI-8226 leukemia): > 100 µM | TGI (RXF 393 renal): > 100 µM | TGI (RXF-631 renal): > 100 µM | TGI (SF-268 CNS): > 100 µM | TGI (SF-295 CNS): > 100 µM | TGI (SF-539 CNS): > 100 µM | TGI (SK-MEL-2 melanoma): > 100 µM | TGI (SK-MEL-28 melanoma): > 100 µM | TGI (SK-MEL-5 melanoma): > 100 µM | TGI (SK-OV-3 ovarian): > 100 µM | TGI (SN12C renal): > 100 µM | TGI (SNB-19 CNS): > 100 µM | TGI (SNB-75 CNS): > 100 µM | TGI (SNB-78 CNS): > 100 µM | TGI (SW-620 colon): > 100 µM | TGI (TK-10 renal): > 100 µM | TGI (U251 CNS): > 100 µM | TGI (UACC-257 melanoma): > 100 µM | TGI (UACC-62 melanoma): > 100 µM | TGI (UO-31 renal): > 100 µM | TGI (XF 498 CNS): > 100 µM

O=c1c2cc(-c3ccccc3)sc2nc2sc(-c3ccccc3)nn12
TGI (786-0 renal): > 100 µM | TGI (A498 renal): > 100 µM | TGI (A549 NSCLC): > 100 µM | TGI (CAKI-1 renal): > 100 µM | TGI (CCRF-CEM leukemia): > 100 µM | TGI (COLO 205 colon): > 100 µM | TGI (DLD-1 colon): > 100 µM | TGI (DMS 114 small cell lung): > 100 µM | TGI (DMS 273 small cell lung): > 100 µM | TGI (EKVX NSCLC): > 100 µM | TGI (HCT-116 colon): > 100 µM | TGI (HCT-15 colon): > 100 µM | TGI (HL-60(TB) leukemia): > 100 µM | TGI (HOP-18 NSCLC): > 100 µM | TGI (HOP-62 NSCLC): > 100 µM | TGI (HOP-92 NSCLC): > 100 µM | TGI (HT29 colon): > 100 µM | TGI (IGROV1 ovarian): > 100 µM | TGI (K-562 leukemia): > 100 µM | TGI (KM12 colon): > 100 µM | TGI (KM20L2 colon): > 100 µM | TGI (LOX IMVI melanoma): > 100 µM | TGI (LXFL 529 NSCLC): > 100 µM | TGI (M14 melanoma): > 100 µM | TGI (M19-MEL melanoma): > 100 µM | TGI (MALME-3M melanoma): > 100 µM | TGI (MOLT-4 leukemia): > 100 µM | TGI (NCI-H226 lung): > 100 µM | TGI (NCI-H23 lung): > 100 µM | TGI (NCI-H460 lung): > 100 µM | TGI (NCI-H522 lung): > 100 µM | TGI (OVCAR-3 ovarian): > 100 µM | TGI (OVCAR-4 ovarian): > 100 µM | TGI (OVCAR-5 ovarian): > 100 µM | TGI (OVCAR-8 ovarian): > 100 µM | TGI (RPMI-8226 leukemia): > 100 µM | TGI (RXF 393 renal): > 100 µM | TGI (RXF-631 renal): > 100 µM | TGI (SF-268 CNS): > 100 µM | TGI (SF-295 CNS): > 100 µM | TGI (SF-539 CNS): > 100 µM | TGI (SK-MEL-2 melanoma): > 100 µM | TGI (SK-MEL-5 melanoma): > 100 µM | TGI (SK-OV-3 ovarian): > 100 µM | TGI (SN12C renal): > 100 µM | TGI (SNB-19 CNS): > 100 µM | TGI (SNB-75 CNS): > 100 µM | TGI (SNB-78 CNS): > 100 µM | TGI (SR leukemia): > 100 µM | TGI (SW-620 colon): > 100 µM | TGI (TK-10 renal): > 100 µM | TGI (U251 CNS): > 100 µM | TGI (UACC-257 melanoma): > 100 µM | TGI (UACC-62 melanoma): > 100 µM | TGI (UO-31 renal): > 100 µM | TGI (XF 498 CNS): > 100 µM

N#CC(C(=N/NC(N)=S)/C(=N\NC(N)=S)C(C#N)c1ccccc1)c1ccccc1 (configuration not stated)
TGI (786-0 renal): > 10 µM | TGI (A498 renal): > 10 µM | TGI (A549 NSCLC): > 10 µM | TGI (ACHN renal): > 10 µM | TGI (CCRF-CEM leukemia): > 10 µM | TGI (COLO 205 colon): > 10 µM | TGI (DLD-1 colon): > 10 µM | TGI (DMS 114 small cell lung): > 10 µM | TGI (DMS 273 small cell lung): > 10 µM | TGI (EKVX NSCLC): > 10 µM | TGI (HCC-2998 colon): > 10 µM | TGI (HCT-116 colon): > 10 µM | TGI (HCT-15 colon): > 10 µM | TGI (HL-60(TB) leukemia): > 10 µM | TGI (HOP-18 NSCLC): > 10 µM | TGI (HOP-62 NSCLC): > 10 µM | TGI (HOP-92 NSCLC): > 10 µM | TGI (HT29 colon): > 10 µM | TGI (K-562 leukemia): > 10 µM | TGI (KM12 colon): > 10 µM | TGI (KM20L2 colon): > 10 µM | TGI (LOX IMVI melanoma): > 10 µM | TGI (LXFL 529 NSCLC): > 10 µM | TGI (M14 melanoma): > 10 µM | TGI (M19-MEL melanoma): > 10 µM | TGI (MALME-3M melanoma): > 10 µM | TGI (MOLT-4 leukemia): > 10 µM | TGI (NCI-H226 lung): > 10 µM | TGI (NCI-H23 lung): > 10 µM | TGI (NCI-H460 lung): > 10 µM | TGI (NCI-H522 lung): > 10 µM | TGI (OVCAR-3 ovarian): > 10 µM | TGI (OVCAR-4 ovarian): > 10 µM | TGI (OVCAR-5 ovarian): > 10 µM | TGI (OVCAR-8 ovarian): > 10 µM | TGI (RPMI-8226 leukemia): > 10 µM | TGI (RXF 393 renal): > 10 µM | TGI (RXF-631 renal): > 10 µM | TGI (SF-268 CNS): > 10 µM | TGI (SF-295 CNS): > 10 µM | TGI (SF-539 CNS): > 10 µM | TGI (SK-MEL-2 melanoma): > 10 µM | TGI (SK-MEL-28 melanoma): > 10 µM | TGI (SK-OV-3 ovarian): > 10 µM | TGI (SN12C renal): > 10 µM | TGI (SNB-19 CNS): > 10 µM | TGI (SNB-75 CNS): > 10 µM | TGI (SNB-78 CNS): > 10 µM | TGI (SW-620 colon): > 10 µM | TGI (TK-10 renal): > 10 µM | TGI (U251 CNS): > 10 µM | TGI (UACC-257 melanoma): > 10 µM | TGI (UACC-62 melanoma): > 10 µM | TGI (UO-31 renal): > 10 µM | TGI (XF 498 CNS): > 10 µM
